Consider ten compounds from BindingDB's records for doi:10.1111/j.1471-4159.1985.tb08803.x (Lundbeck Ais, 1985).

Each structure is given as a SMILES string. Where a name gives a salt, the structure may show the parent alone.

As a reminder, the Ki is the equilibrium dissociation constant of an inhibitor or competing ligand from its target.

In the first assay the target is D(2) dopamine receptor (Rattus norvegicus, UniProt P61169).
Chain of D(2) dopamine receptor (P61169 whole entry): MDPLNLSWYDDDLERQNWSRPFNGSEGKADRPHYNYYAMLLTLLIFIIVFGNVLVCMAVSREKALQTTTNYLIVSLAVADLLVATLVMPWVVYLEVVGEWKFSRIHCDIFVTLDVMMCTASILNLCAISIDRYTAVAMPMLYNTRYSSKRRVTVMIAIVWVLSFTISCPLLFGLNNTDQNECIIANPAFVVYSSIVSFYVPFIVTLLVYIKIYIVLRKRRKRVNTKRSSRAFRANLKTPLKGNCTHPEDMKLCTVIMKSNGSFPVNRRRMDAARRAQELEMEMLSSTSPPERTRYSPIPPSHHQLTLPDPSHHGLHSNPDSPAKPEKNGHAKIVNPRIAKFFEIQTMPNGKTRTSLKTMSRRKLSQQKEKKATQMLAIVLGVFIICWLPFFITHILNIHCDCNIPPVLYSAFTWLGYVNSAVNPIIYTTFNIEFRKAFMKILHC
With `Fc1ccc(C(OCCN2CCN(C/C=C/c3ccccc3)CC2)c2ccc(F)cc2)cc1`, the Ki came out at 810 nM.

Consider `COc1ccc2c(c1)CN(C)CC2c1ccc(Cl)c(Cl)c1` (stereo unspecified), for which the Ki is over 10000 nM.

`CN(C)C[C@@H]1C2CCC(CC2)[C@@H]1c1ccc(Cl)c(Cl)c1` yielded a Ki of 570 nM.

As to `CNCCC(Oc1ccccc1OC)c1ccccc1` (stereo unspecified) [3-(2-methoxyphenoxy)-N-methyl-3-phenylpropan-1-amine], the Ki is over 10000 nM.

Regarding `CN1Cc2c(N)cccc2[C@H](c2ccccc2)C1` [(+/-)-2-Methyl-4-phenyl-1,2,3,4-tetrahydro-isoquinolin-8-ylamine], the Ki was over 10000 nM.

Compound `CC(NC(C)(C)C)C(=O)c1cccc(Cl)c1` (stereo unspecified) [BUPROPION HYDROCHLORIDE] registered a Ki of over 10000 nM.

In turn, `C(=C\c1ccccc1)/CN1CCN(CCOC(c2ccccc2)c2ccccc2)CC1` [CAS_67469-75-4] had a Ki of 2500 nM.

As for `CN[C@H]1C[C@H](c2ccc(Cl)c(Cl)c2)c2ccccc21` [CAS_96850-13-4], the Ki is over 10000 nM.

On to `CN(C)CCCC1(c2ccc(F)cc2)OCc2cc(C#N)ccc21` (stereo unspecified) [CITALOPRAM HYDROBROMIDE], for which the Ki was over 10000 nM.

The compound `CNCCCC1(c2ccccc2)SC(C)(C)c2ccccc21` (stereo unspecified) [Talsupram] yielded a Ki of over 10000 nM.

For another assay, the target named is T1, Muscarinic acetylcholine receptor M2 (Rattus norvegicus, UniProt P10980).
T1 sequence (P10980 whole entry): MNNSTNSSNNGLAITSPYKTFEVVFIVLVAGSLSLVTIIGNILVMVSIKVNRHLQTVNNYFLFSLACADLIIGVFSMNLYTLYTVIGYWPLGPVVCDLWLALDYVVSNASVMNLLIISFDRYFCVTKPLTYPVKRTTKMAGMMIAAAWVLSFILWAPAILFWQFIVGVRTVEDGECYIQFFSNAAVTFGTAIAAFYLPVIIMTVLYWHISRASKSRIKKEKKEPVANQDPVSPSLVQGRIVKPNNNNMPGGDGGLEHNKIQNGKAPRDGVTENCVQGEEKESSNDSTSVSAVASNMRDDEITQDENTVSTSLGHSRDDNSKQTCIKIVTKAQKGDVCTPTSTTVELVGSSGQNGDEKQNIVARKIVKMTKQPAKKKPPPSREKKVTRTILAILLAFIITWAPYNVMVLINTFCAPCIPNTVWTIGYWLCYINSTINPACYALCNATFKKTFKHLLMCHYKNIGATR
`Fc1ccc(C(OCCN2CCN(C/C=C/c3ccccc3)CC2)c2ccc(F)cc2)cc1` showed a Ki of 2200 nM.

Compound `COc1ccc2c(c1)CN(C)CC2c1ccc(Cl)c(Cl)c1` (stereo unspecified) gave a Ki of 3700 nM.

Take `CN(C)C[C@@H]1C2CCC(CC2)[C@@H]1c1ccc(Cl)c(Cl)c1`: the Ki is over 10000 nM.

Compound `CNCCC(Oc1ccccc1OC)c1ccccc1` (stereo unspecified) [3-(2-methoxyphenoxy)-N-methyl-3-phenylpropan-1-amine] gave a Ki of 5000 nM.

`CN1Cc2c(N)cccc2[C@H](c2ccccc2)C1` [(+/-)-2-Methyl-4-phenyl-1,2,3,4-tetrahydro-isoquinolin-8-ylamine]: the Ki was over 10000 nM.

The compound `CC(NC(C)(C)C)C(=O)c1cccc(Cl)c1` (stereo unspecified) [BUPROPION HYDROCHLORIDE] had a Ki of over 10000 nM.

In turn, `C(=C\c1ccccc1)/CN1CCN(CCOC(c2ccccc2)c2ccccc2)CC1` [CAS_67469-75-4] came in with a Ki of 900 nM.

Consider `CN[C@H]1C[C@H](c2ccc(Cl)c(Cl)c2)c2ccccc21` [CAS_96850-13-4], for which the Ki is over 10000 nM.

In turn, `CN(C)CCCC1(c2ccc(F)cc2)OCc2cc(C#N)ccc21` (stereo unspecified) [CITALOPRAM HYDROBROMIDE] showed a Ki of 4800 nM.

On to `CNCCCC1(c2ccccc2)SC(C)(C)c2ccccc21` (stereo unspecified) [Talsupram], for which the Ki came out at 1300 nM.

The next assay addresses Norepinephrine transporter (Rattus norvegicus, UniProt Q9JIA2).
The compound `Fc1ccc(C(OCCN2CCN(C/C=C/c3ccccc3)CC2)c2ccc(F)cc2)cc1` had a Ki of 13 nM.

On to `COc1ccc2c(c1)CN(C)CC2c1ccc(Cl)c(Cl)c1` (stereo unspecified), for which the Ki worked out at 2.3 nM.

Compound `CN(C)C[C@@H]1C2CCC(CC2)[C@@H]1c1ccc(Cl)c(Cl)c1` displayed a Ki of 5.4 nM.

For `CN1Cc2c(N)cccc2[C@H](c2ccccc2)C1` [(+/-)-2-Methyl-4-phenyl-1,2,3,4-tetrahydro-isoquinolin-8-ylamine], the Ki came to 6.6 nM.

As for `CC(NC(C)(C)C)C(=O)c1cccc(Cl)c1` (stereo unspecified) [BUPROPION HYDROCHLORIDE], the Ki worked out at 1500 nM.

In the case of `C(=C\c1ccccc1)/CN1CCN(CCOC(c2ccccc2)c2ccccc2)CC1` [CAS_67469-75-4], the Ki came to 29 nM.

For `CNCCCC1(c2ccccc2)SC(C)(C)c2ccccc21` (stereo unspecified) [Talsupram], the affinity, expressed as Ki, was 0.79 nM.

In the next assay the target is 5-hydroxytryptamine receptor 2A (Rattus norvegicus, UniProt P14842).
Chain of 5-hydroxytryptamine receptor 2A (P14842 whole entry): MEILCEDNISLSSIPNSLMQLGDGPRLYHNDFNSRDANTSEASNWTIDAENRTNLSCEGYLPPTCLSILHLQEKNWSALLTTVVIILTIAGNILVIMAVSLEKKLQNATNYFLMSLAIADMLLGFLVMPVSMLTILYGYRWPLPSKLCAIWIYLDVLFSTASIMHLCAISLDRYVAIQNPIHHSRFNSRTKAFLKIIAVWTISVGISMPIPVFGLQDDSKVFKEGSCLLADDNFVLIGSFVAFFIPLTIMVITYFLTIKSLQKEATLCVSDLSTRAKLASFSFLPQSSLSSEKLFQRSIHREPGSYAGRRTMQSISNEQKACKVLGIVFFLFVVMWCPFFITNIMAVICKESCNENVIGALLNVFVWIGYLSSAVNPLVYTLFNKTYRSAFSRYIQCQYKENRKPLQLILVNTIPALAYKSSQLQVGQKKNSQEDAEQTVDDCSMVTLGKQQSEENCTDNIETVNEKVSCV
`Fc1ccc(C(OCCN2CCN(C/C=C/c3ccccc3)CC2)c2ccc(F)cc2)cc1`: the affinity corresponds to a Ki of 3400 nM.

As for `COc1ccc2c(c1)CN(C)CC2c1ccc(Cl)c(Cl)c1` (stereo unspecified), the affinity, expressed as Ki, was 550 nM.

Consider `CN(C)C[C@@H]1C2CCC(CC2)[C@@H]1c1ccc(Cl)c(Cl)c1`, for which the Ki is over 10000 nM.

As for `CNCCC(Oc1ccccc1OC)c1ccccc1` (stereo unspecified) [3-(2-methoxyphenoxy)-N-methyl-3-phenylpropan-1-amine], the Ki was determined as 620 nM.

On to `C(=C\c1ccccc1)/CN1CCN(CCOC(c2ccccc2)c2ccccc2)CC1` [CAS_67469-75-4], for which the Ki was 1000 nM.

For `CNCCCC1(c2ccccc2)SC(C)(C)c2ccccc21` (stereo unspecified) [Talsupram], the Ki was 1600 nM.

The target in a further assay is T2, Alpha-1A adrenergic receptor (Rattus norvegicus, UniProt P43140).
T2 sequence (P43140 whole entry): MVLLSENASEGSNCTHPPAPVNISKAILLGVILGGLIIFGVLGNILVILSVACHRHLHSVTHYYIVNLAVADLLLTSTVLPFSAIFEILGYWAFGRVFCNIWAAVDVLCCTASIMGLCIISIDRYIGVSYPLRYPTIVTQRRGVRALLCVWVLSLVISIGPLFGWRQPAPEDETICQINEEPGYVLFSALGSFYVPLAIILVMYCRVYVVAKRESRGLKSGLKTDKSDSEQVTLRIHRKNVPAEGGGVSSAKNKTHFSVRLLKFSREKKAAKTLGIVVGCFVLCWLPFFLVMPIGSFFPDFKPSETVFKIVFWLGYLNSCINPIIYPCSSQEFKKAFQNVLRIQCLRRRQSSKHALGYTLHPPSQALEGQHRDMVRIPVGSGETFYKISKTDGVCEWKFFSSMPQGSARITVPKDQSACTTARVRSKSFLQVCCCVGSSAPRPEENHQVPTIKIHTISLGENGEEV
Regarding `Fc1ccc(C(OCCN2CCN(C/C=C/c3ccccc3)CC2)c2ccc(F)cc2)cc1`, the Ki came to 2200 nM.

For the compound `COc1ccc2c(c1)CN(C)CC2c1ccc(Cl)c(Cl)c1` (stereo unspecified), the Ki was found to be 480 nM.

Compound `CN(C)C[C@@H]1C2CCC(CC2)[C@@H]1c1ccc(Cl)c(Cl)c1` came in with a Ki of over 10000 nM.

As to `CNCCC(Oc1ccccc1OC)c1ccccc1` (stereo unspecified) [3-(2-methoxyphenoxy)-N-methyl-3-phenylpropan-1-amine], the Ki worked out at 4300 nM.

Consider `CN1Cc2c(N)cccc2[C@H](c2ccccc2)C1` [(+/-)-2-Methyl-4-phenyl-1,2,3,4-tetrahydro-isoquinolin-8-ylamine], for which the Ki was 1200 nM.

The compound `CC(NC(C)(C)C)C(=O)c1cccc(Cl)c1` (stereo unspecified) [BUPROPION HYDROCHLORIDE] registered a Ki of over 10000 nM.

Turning to `C(=C\c1ccccc1)/CN1CCN(CCOC(c2ccccc2)c2ccccc2)CC1` [CAS_67469-75-4], the Ki stood at 270 nM.

For `CN[C@H]1C[C@H](c2ccc(Cl)c(Cl)c2)c2ccccc21` [CAS_96850-13-4], the Ki was 740 nM.

The compound `CN(C)CCCC1(c2ccc(F)cc2)OCc2cc(C#N)ccc21` (stereo unspecified) [CITALOPRAM HYDROBROMIDE] gave a Ki of 1600 nM.

`CNCCCC1(c2ccccc2)SC(C)(C)c2ccccc21` (stereo unspecified) [Talsupram] registered a Ki of over 10000 nM.

For another assay, the target named is Sodium-dependent serotonin transporter (Rattus norvegicus, UniProt P31652).
Chain of Sodium-dependent serotonin transporter (P31652 whole entry): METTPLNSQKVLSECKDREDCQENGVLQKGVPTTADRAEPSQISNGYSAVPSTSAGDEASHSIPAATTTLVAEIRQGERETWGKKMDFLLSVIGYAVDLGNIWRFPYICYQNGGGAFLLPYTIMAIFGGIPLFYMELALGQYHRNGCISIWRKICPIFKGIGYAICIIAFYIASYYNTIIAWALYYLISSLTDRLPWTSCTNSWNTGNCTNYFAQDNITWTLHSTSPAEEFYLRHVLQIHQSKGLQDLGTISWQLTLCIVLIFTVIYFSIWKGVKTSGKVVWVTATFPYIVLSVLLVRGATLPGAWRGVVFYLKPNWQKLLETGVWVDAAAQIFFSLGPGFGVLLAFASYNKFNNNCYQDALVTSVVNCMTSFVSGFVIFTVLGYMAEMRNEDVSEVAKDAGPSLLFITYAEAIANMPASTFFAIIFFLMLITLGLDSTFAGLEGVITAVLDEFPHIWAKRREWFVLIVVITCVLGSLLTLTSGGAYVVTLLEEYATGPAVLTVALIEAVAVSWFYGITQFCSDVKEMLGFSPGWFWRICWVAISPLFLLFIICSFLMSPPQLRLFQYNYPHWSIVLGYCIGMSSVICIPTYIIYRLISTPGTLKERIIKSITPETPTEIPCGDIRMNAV
Turning to `CN(C)C[C@@H]1C2CCC(CC2)[C@@H]1c1ccc(Cl)c(Cl)c1`, the affinity corresponds to a Ki of 51 nM.

`C(=C\c1ccccc1)/CN1CCN(CCOC(c2ccccc2)c2ccccc2)CC1` [CAS_67469-75-4] gave a Ki of 1900 nM.

The compound `CNCCCC1(c2ccccc2)SC(C)(C)c2ccccc21` (stereo unspecified) [Talsupram] registered a Ki of 850 nM.
